# In article PMC8139662 (Journal of Virology, 2021):
# System: polarized human airway epithelial cultures (HAEC)
structure (smiles),measurement,value
COc1cccc2[nH]c(C(=O)N[C@@H](CC(C)C)C(=O)N[C@@H](C[C@@H]3CCNC3=O)C(=O)CO)cc12 [PF-00835231],effect on transepithelial resistance (TEER) over time,we did not observe this trend
